Earlier results on one compound are cited in US9549940B2, “Sustained-release formulations of topiramate” (Supernus Pharmaceuticals, Inc., priority 2006, dated 2017).

The conditions of series [1]: room temperature.
For series [2] the following is noted: oral administration of an immediate release dosage form.

Molecules are shown by their SMILES.

As for `CC1(C)OC2[C@@H](CO[C@@]3(COS(N)(=O)=O)OC(C)(C)O[C@@H]23)O1` (stereo partly drawn) [topiramate, 2,3:4,5-Di-O-isopropylidene-beta-D-fructopyranose sulfamate], the “solubility of topiramate in water” value in series [1] was “about 9.8 mg/ml”. Further, the “time of plasma drug concentration peak” value in series [2] is “approximately 2 hours”.
